According to publication PMC10403574, “Discovery of a pyrrole-pyridinimidazole derivative as novel SIRT6 inhibitor for sensitizing pancreatic cancer to gemcitabine” (Cell Death & Disease, 2023):

Experiments:
[1] = biological target: SIRT6 (Homo sapiens, UniProt Q8N6T7); assay: Biolayer interferometry (BLI) binding; parameters: The human full-length SIRT6 gene was inserted into the prokaryotic expression vector (pET-28a (+)); inferred from the pET-28a(+) vector, Ni-NTA purification and Ni-NTA biosensor loading); made in house; host or cells: Escherichia coli BL21 (DE3); details: Octet RED, Ni-NTA biosensors, 25 °C
Sequence of SIRT6 (Q8N6T7 whole entry): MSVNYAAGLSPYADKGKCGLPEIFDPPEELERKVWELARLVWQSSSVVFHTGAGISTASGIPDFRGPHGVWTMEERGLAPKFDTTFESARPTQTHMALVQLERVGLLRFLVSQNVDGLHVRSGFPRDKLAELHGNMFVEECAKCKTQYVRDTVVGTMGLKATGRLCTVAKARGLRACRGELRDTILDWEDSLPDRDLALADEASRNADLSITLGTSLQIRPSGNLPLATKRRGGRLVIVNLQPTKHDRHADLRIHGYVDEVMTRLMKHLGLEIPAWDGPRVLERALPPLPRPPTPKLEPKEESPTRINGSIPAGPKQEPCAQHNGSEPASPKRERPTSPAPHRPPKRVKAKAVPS
Procedure: Binding assays were performed using Ni-NTA biosensors on the Octet® Red96 system (ForteBio, Menlo Park, CA) in 96-well microplates and measuring changes wavelength shift (in nm) over time (s). All steps were carried out at 25 °C with the plate shaking speed of 1000 rpm. The total working volume was 200 μL in 96-well microplate (Greiner Bio-one, Germany). The SIRT6 protein and compounds were diluted with phosphate-buffered saline (PBS, pH 7.4). Ni-NTA biosensors were prewetted for at least 10 min in PBS prior to the assay. Afterwards, the Ni-NTA biosensors were immobilized for 180 s with 200 μL culture containing 20 μg/mL SIRT6. After loading, sensors were washed in PBS buffer for another 120 s and transferred to wells containing different concentrations of compound 8a (0, 12.5, 25, 50, 100 μM) for binding. Finally, the dissociation step was carried out in kinetic buffer for 180 s. The assay data were processed and calculated using the ForteBio Octet RED analysis software.

[2] = biological target: HDAC7 (Homo sapiens, UniProt Q8WUI4); assay: Deacetylation activity selectivity, HDAC7; format: biochemical
Sequence of HDAC7 (Q8WUI4 whole entry): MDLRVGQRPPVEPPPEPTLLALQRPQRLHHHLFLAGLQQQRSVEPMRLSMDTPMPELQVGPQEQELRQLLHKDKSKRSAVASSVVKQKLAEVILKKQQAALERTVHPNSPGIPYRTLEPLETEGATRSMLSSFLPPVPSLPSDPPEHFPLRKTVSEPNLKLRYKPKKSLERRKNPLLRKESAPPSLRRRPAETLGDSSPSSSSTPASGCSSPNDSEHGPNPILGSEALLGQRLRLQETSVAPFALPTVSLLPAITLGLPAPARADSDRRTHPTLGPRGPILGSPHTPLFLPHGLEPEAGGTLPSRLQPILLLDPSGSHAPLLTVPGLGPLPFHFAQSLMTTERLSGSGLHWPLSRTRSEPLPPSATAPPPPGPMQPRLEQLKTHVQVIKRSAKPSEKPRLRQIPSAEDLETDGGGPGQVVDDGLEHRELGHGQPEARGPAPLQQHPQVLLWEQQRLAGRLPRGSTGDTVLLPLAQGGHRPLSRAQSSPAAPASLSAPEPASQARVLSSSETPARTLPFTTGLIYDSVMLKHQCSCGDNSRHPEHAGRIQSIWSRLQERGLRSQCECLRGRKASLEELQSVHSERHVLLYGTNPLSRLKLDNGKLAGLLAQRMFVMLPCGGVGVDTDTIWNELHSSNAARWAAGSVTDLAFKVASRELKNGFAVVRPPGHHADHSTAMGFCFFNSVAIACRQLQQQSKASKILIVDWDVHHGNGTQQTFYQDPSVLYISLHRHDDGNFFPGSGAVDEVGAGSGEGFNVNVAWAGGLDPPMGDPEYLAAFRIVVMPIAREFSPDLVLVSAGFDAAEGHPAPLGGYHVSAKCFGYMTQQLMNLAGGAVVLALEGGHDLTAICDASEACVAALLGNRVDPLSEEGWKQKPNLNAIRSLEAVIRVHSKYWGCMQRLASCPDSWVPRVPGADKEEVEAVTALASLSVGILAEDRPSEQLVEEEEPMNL
Text: (§1) Based on the above results, 8a was further investigated in this study. […] To further evaluate the selectivity of 8a for SIRT6, we examined the effect of 8a on the deacetylation activity of other HDAC family members, including HDAC1-HDAC11, SIRT1-SIRT3 and SIRT5. […] Furthermore, to confirm binding of 8a to SIRT6 in cells, we carried out the cellular thermal shift assay (CETSA). The CETSA approach builds on the thermal shift assay concept where ligand binding to its target protein enhances the target protein stability. We observed that the thermal stability of SIRT6 increased after 8a treatment (Figs. 2c, d).

[3] = tested on: islet α cells and β cells; assay: Immunofluorescence of pancreatic tissues (islet cell composition); format: in vivo; details: mice, 8a 20 mg/kg, 2 weeks
Procedure: Male C57BL/6 mice (18 ± 2 g, 5 weeks old) were randomly divided into four groups with six mice per group. Acute drug toxicity test was performed. Mice were fasted for 6 h, and basal blood glucose and serum insulin levels were measured by using Accu-Check Performa (Roche, Swiss) glucose meter and Mouse Insulin ELISA kit (Solarbio). Compound 8a (10, 20, 30 mg/kg) was intraperitoneally injected for 10 min, followed by glucose (2 g/kg) intraperitoneally injected. The blood glucose concentration was measured at 30 and 60 min after glucose injection, and the serum insulin content of mice was measured at 60 min. Compound 8a was treated every other day for 2 weeks and tested for chronic drug toxicity. According to the above method, the serum glucose and insulin content of mice were measured.
Pancreatic tissue sections were incubated with primary antibodies overnight at 4 °C. The primary antibodies were as follows: anti-Glucagon (Cell Signaling Technology, Cat#2760), anti-insulin (Cell Signaling Technology, Cat#3014). The sections were stained with secondary antibodies (Alexa Fluor 488-conjugated anti-rabbit IgG, Abcam, Cat#ab150077) for 2 h at 4 °C in dark. After washing with PBS, the sections were stained with DAPI and observed by confocal microscopy (Leica TCS SP8 STED 3X).

[4] = biological target: SIRT2 (Homo sapiens, UniProt Q8IXJ6); assay: Deacetylation activity selectivity, SIRT2; format: biochemical
Sequence of SIRT2 (Q8IXJ6 whole entry, species assumed): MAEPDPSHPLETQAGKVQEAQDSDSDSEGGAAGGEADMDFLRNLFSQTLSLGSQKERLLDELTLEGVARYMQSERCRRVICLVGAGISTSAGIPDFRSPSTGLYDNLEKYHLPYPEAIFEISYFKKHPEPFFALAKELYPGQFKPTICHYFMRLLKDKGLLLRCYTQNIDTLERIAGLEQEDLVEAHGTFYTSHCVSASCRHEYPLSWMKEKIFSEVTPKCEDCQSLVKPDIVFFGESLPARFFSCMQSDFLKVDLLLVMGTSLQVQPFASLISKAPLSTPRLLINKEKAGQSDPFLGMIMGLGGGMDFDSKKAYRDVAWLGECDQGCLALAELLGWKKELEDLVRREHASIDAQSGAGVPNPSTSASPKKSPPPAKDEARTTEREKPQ
Procedure: (§2) Fluor-De-Lys (FDL) assays were used for the examination of the deacetylation activities of sirtuins as described previously. For the detection of SIRT6 activity, the 50-μL reaction mixture contained 5 μM SIRT6, 2.5 mM NAD^+ (β-Nicotinamide adenine dinucleotide hydrate, Sigma, N1636), 75 μM RHKK-Ac-AMC (GL Biochem, Shanghai), compounds/DMSO, and assay buffer. The reactions were incubated at 37 °C for 2 h, added 50 μL stop solution (40 mM nicotinamide, 6 mg/mL trypsin) at 25 °C for 30 min. Fluorescence intensity was measured at an excitation wavelength of 360 nm and an emission wavelength of 460 nm. IC50 values were calculated in GraphPad Prism version 8.00.
as §1

[5] = tested on: SIRT6 mutants (E140A/R195A, T184A/S191A/P193A/E283A, E22A and D63A); assay: FDL assay on other SIRT6 mutants; format: biochemical, human; details: three mutants
Procedure: as §2
To explore the interaction mechanism, we performed the molecular docking experiment between SIRT6 (PDB ID: 6QCJ) and 8a. […] 8a mainly formed hydrogen bond with the backbone amino group of D187 and the ribose hydroxyl group of the coenzyme NAD^+, and stabilized the whole system by hydrophobic interactions with key amino acids such as I8, V70, W71, F82 and F86 (Fig. 2g). To verify this binding model, the mutant (V70A and F86A) of SIRT6 was constructed by site mutation. […] Moreover, there were also some other potential binding pockets predicted by molecular docking (data not shown). Based on the prediction, we constructed other two SIRT6 mutants (E140A/R195A and T184A/S191A/P193A/E283A). […]

Kd [1]: 16 ± 0.313 µM
IC50 [2]: > 200 µM
number of α cells and β cells in the islets [3]: no significant difference
IC50 [4]: 92.2 ± 1.95 µM
Compound: Br.CN(C)C(SCCCCCCn1cnc2c(-c3cc(Br)c(Br)[nH]3)nccc21)=[N+](C)C.[Cl-] [Compound 8a]
effect of mutants on the inhibitory activity of 8a [5]: did not significantly affect
